The results in this text go back to patent US20240343694A1, “PYRIMIDINE DERIVATIVE, METHOD FOR PREPARING SAME, AND PHARMACEUTICAL COMPOSITION FOR PREVENTING OR TREATING CANCER COMPRISING SAME AS ACTIVE INGREDIENT” (KOREA RESERARCH INSTITUTE OF CHEMICAL TECHNOLOGY, priority 2021, published 2024).

Where only a bound is given, the exact number is not on record here.

Type in all cases: biochemical
Holding throughout (settings): recombinant enzyme, 37° C. for 2 hours

The target in experiment [1] is EGFR del19 (Homo sapiens (Human), UniProt P00533, DEL746-750). Description: HTRF inhibitory activity against EGFR mutant enzyme (EGFR del19). On the procedure:
(§1) The activity of the compounds of the present invention against EGFR mutant enzymes was measured using the HTRF system purchased from Cisbio as follows. For an EGFR mutant enzyme, the EGFR del19 enzyme was a recombinant protein purchased from Carna Biosciences, and the EGFR A763_Y764insFHEA enzyme was a recombinant protein purchased from SignalChem, respectively.
(§2) The composition of the assay buffer used for activity measurement was 50 mM tris-HCl pH 7.5, 100 mM NaCl, 7.5 mM MgCl2, 3 mM KCl, 0.01% tween 20, 0.1% BSA, and 1 mM DTT. An enzymatic reaction was performed using a peptide substrate labeled with ATP at a concentration of […] and biotin at a concentration of […]. The analysis of the inhibitory effect of the compounds on EGFR activity was performed according to the following method. • Component 1:4 μL of EGFR mutant enzyme • Component 2:2 μL of compound solution • Component 3:4 μL of ATP and a biotin labeled peptide
(§3) The enzyme reaction begins by first mixing component 1 and component 2 and then adding component 3 thereto. After the reaction at 37° C. for 2 hours, […] of a measurement solution consisting of streptavidin-XL665 and a europium-labeled anti-phosphotyrosine antibody purchased from Cisbio was added to the enzyme reaction solution and reacted at room temperature for 1 hour. Finally, the ratio of fluorescence values at 615 nm and 665 nm was measured using Perkin-Elmer's Envision instrument to calculate enzyme activity and confirm the inhibitory ability of the compounds. The measured values at 7 compound concentrations were analyzed using the Prism program (version 5.01, Graphpad Software, Inc.), and the IC50 (μM) values, which are measures of the compounds' inhibitory activity, were calculated.

For experiment [2], the target named is HER2 A775_G776insYVMA (Homo sapiens (Human), UniProt P04626, INS775YVMA). Description: HTRF inhibitory activity against HER2 mutant enzyme. On the procedure: The activity of the compounds of the present invention against HER mutant enzymes was measured using the HTRF system purchased by Cisbio as follows. As a HER2 mutant enzyme, the HER2 A775_G776insYVMA mutant enzyme was used by purchasing a recombinant protein provided by Carna Biosciences.
as §2, with “mM DTT. In addition thereto, the enzymatic reaction” for “mM DTT. An enzymatic reaction”, “of the activity inhibitory effect” for “of the inhibitory effect”, “compounds on HER2 A775_G776insYVMA mutation was performed” for “compounds on EGFR activity was performed”, “μL of HER2 A775_G776insYVMA mutant enzyme” for “μL of EGFR mutant enzyme”
as §3, with “Finally, the ratio of fluorescence values at 615 nm and 665 nm was measured using Perkin-Elmer's Envision instrument to calculate enzyme activity and confirm the inhibitory ability of the compounds.” left out, “ability,” for “activity,”

In experiment [3] the target is EGFR A763_Y764insFHEA (Homo sapiens (Human), UniProt P00533, INS763FHEA). Description: HTRF inhibitory activity against EGFR mutant enzyme (EGFR A763_Y764insFHEA). On the procedure:
as §1, §2, §3
Background: TR-FRET usually uses a lanthanide donor and a delayed reading to cut background.

Chain of EGFR del19 (P00533 other isoform, or with tags, fused parts or gaps del 1-668/del 746-750 limits assumed): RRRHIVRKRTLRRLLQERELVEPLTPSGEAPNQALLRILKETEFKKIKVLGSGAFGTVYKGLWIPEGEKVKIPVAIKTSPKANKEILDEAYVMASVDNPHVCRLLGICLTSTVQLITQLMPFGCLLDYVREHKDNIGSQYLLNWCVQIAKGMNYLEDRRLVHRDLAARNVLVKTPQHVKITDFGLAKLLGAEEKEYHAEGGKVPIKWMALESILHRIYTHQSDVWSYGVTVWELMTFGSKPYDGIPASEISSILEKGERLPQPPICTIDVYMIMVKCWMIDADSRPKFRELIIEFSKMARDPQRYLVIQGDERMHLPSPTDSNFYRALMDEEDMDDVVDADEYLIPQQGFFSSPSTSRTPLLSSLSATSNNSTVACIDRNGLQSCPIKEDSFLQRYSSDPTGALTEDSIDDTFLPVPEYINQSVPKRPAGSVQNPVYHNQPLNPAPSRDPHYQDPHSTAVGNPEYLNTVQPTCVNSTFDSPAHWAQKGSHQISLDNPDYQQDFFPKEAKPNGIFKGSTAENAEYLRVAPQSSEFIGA
Chain of EGFR A763_Y764insFHEA (P00533 other isoform, or with tags, fused parts or gaps del 1-694/ins FHEA behind 763 limits assumed): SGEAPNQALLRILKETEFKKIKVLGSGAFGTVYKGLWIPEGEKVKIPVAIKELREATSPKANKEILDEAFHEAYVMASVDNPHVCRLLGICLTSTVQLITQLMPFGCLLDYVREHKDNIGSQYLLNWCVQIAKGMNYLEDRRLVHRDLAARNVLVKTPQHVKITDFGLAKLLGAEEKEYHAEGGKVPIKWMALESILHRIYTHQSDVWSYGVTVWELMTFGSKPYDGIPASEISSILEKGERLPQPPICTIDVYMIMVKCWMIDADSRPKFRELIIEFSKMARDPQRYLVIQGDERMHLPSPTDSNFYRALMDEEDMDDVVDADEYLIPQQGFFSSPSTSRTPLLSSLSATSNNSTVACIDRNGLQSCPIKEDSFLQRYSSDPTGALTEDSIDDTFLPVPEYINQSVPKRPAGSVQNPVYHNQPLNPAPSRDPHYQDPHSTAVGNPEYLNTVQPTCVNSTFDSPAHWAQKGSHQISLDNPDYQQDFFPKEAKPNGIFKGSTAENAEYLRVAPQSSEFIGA
Chain of HER2 A775_G776insYVMA (P04626 other isoform, or with tags, fused parts or gaps del 1-675/ins YVMA behind 775 limits assumed): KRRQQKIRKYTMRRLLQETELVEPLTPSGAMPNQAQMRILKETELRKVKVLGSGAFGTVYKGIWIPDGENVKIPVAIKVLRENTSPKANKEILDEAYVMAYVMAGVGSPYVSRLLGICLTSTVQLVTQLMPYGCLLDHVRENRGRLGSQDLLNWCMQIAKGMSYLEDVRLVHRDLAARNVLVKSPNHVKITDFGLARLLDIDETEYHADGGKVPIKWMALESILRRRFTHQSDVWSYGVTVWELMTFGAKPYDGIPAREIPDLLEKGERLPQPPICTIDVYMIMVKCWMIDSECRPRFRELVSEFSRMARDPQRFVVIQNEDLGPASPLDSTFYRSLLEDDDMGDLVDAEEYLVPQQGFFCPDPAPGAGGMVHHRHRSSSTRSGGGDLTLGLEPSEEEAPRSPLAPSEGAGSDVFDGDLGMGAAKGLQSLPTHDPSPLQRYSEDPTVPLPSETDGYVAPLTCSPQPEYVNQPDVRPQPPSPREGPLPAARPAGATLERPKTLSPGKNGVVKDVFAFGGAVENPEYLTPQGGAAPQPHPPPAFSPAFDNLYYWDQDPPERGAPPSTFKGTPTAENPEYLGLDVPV

What is called IC50 is the concentration that inhibits the measured activity by half. `C=CC(=O)Nc1cc(Nc2ncc(Cl)c(Nc3ccc4nccnc4c3NS(C)(=O)=O)n2)c(OC)cc1N(C)CCN(C)C` [Example 69]: the half-inhibitory concentration (IC50) in experiment [1] is less than 1 nM; in experiment [2] it was 6 nM; in experiment [3], less than 1 nM.
Regarding `C=CC(=O)Nc1cc(Nc2ncc(Cl)c(Nc3ccccc3N3CCCS3(=O)=O)n2)c(OC)cc1N(C)CCN(C)C` [Example 70, N-(5-((5-chloro-4-((2-(1,1-dioxidoisothiazolidin-2-yl)phenyl)amino)pyrimidin-2-yl)amino)-2-((2-(dimethylamino)ethyl)(methyl)amino)-4-methoxyphenyl)acrylamide], the IC50 in experiment [1] was less than 1 nM; in experiment [2], 33 nM; in experiment [3], 4 nM.
Turning to `C=CC(=O)Nc1cc(Nc2ncc(Cl)c(Nc3ccccc3N3CCCCS3(=O)=O)n2)c(OC)cc1N(C)CCN(C)C` [Example 71, N-(5-((5-chloro-4-((2-(1,1-dioxido-1,2-thiazinan-2-yl)phenyl)amino)pyrimidin-2-yl)amino)-2-((2-(dimethylamino)ethyl)(methyl)amino)-4-methoxyphenyl)acrylamide], the IC50 in experiment [1] is less than 1 nM; in experiment [2], 61 nM; in experiment [3] it was 5 nM.
In the case of `C=CC(=O)Nc1cc(Nc2ncc(Cl)c(Nc3cccc4c3N(S(C)(=O)=O)CC4)n2)c(OC)cc1N(C)CCN1CCN(C)CC1` [Example 73, N-(5-((5-chloro-4-((1-(methylsulfonyl)indolin-7-yl)amino)pyrimidin-2-yl)amino)-4-methoxy-2-(methyl(2-(4-methylpiperazin-1-yl)ethyl)amino)phenyl)acrylamide], the IC50 in experiment [1] is less than 1 nM; in experiment [2], 5 nM; in experiment [3], less than 1 nM.
For the compound `C=CC(=O)Nc1cc(Nc2ncc(Cl)c(Nc3cccc4c3N(S(=O)(=O)CC)CC4)n2)c(OC)cc1N(C)CCN1CCCC1` [Example 75, N-(5-((5-chloro-4-((1-(ethylsulfonyl)indolin-7-yl)amino)pyrimidin-2-yl)amino)-4-methoxy-2-(methyl(2-(pyrrolidin-1-yl)ethyl)amino)phenyl)acrylamide], the 50% inhibitory concentration (IC50) is less than 1 nM in experiment [1], 3 nM in experiment [2] and less than 1 nM in experiment [3].
As for `C=CC(=O)Nc1cc(Nc2ncc(Cl)c(Nc3cccc4c3N(S(C)(=O)=O)CC4)n2)c(OC)cc1OCCN1CCOCC1` [Example 77, N-(5-((5-chloro-4-((1-(methylsulfonyl)indolin-7-yl)amino)pyrimidin-2-yl)amino)-4-methoxy-2-(2-morpholinoethoxy)phenyl)acrylamide], the values for the 50% inhibitory concentration (IC50) in experiment [1], in experiment [2] and in experiment [3] were less than 1 nM, 2 nM and less than 1 nM, respectively.
On to `C=CC(=O)Nc1cc(Nc2ncc(Cl)c(Nc3cccc4c3N(S(C)(=O)=O)CC4)n2)c(OC)cc1OCCN1CCCCC1` [Example 78, N-(5-((5-chloro-4-((1-(methylsulfonyl)indolin-7-yl)amino)pyrimidin-2-yl)amino)-4-methoxy-2-(2-(piperidin-1-yl)ethoxy)phenyl)acrylamide], for which the IC50 is less than 1 nM in experiment [1], 3 nM in experiment [2] and less than 1 nM in experiment [3].
For `C=CC(=O)Nc1cc(Nc2ncc(Cl)c(Nc3cccc4c3N(S(=O)(=O)CC)CC4)n2)c(OC)cc1N(C)CCN1CCC1` [Example 81, N-(2-((2-(azetidin-1-yl)ethyl)(methyl)amino)-5-((5-chloro-4-((1-(ethylsulfonyl)indolin-7-yl)amino)pyrimidin-2-yl)amino)-4-methoxyphenyl)acrylamide], the IC50 in experiment [1], in experiment [2] and in experiment [3] was less than 1 nM each time.
